According to publication PMC7269513 (Antimicrobial Agents and Chemotherapy, 2020):
Several values for one entry are separate records, joined by “and”; a condition that tells them apart may be missing. Equal entries are not always repeated. Where two headings read alike, the source gives them in different places.

What was measured:
[1] = target: CTX-M-14 (Escherichia coli, UniProt Q9L5C7); assay: IC50 of beta-lactamase inhibition (nitrocefin hydrolysis); type: biochemical; settings: read-out: IC50 (nM) of drug
[2] = target: T1, SHV-12 (Klebsiella pneumoniae, UniProt P0AD64, E235K/G234S/L31Q); assay: as above; type: biochemical; settings: read-out: IC50 (nM) of drug
[3] = target: T2, CTX-M-15 (Escherichia coli, UniProt Q9EXV5); assay: as above; type: biochemical; settings: read-out: IC50 (nM) of drug
Method: (§1) […]; Initial rates of reaction were calculated and exported to Prism software to calculate IC50 values using the “dose-response—inhibition, variable slope (four parameters)” equation. Ki values were calculated by the method of Waley ([31]). This method was previously used to calculate Ki values for boronic fast-on–fast-off BLIs.

[4] = target: T3, P99 (Enterobacter cloacae, UniProt P05364); assay: as above; type: biochemical
Method: as §1

[5] = target: T4, VIM-1 (Pseudomonas aeruginosa, UniProt A0A0F7KYQ8); assay: as above; type: biochemical
[6] = target: T5, IMP-1 (Serratia marcescens, UniProt P52699); assay: IC50 of beta-lactamase inhibition (imipenem hydrolysis); type: biochemical
[7] = target: T6, NDM-1 (Klebsiella pneumoniae, UniProt C7C422); assay: biochemical
[8] = target: T7, KPC-2 (Klebsiella pneumoniae, UniProt Q9F663); type: biochemical
[9] = target: T6, NDM-1; type: biochemical
[10] = target: IMP-26 (Pseudomonas aeruginosa, UniProt D0V558); type: biochemical; settings: hydrolysis by IMP-26
[11] = target: T8, OXA-48 (Klebsiella pneumoniae, UniProt Q6XEC0)
[12] = target: T9, OXA-23 (Acinetobacter baumannii, UniProt Q9L4P2)
[13] = target: T10, OXA-24 (Acinetobacter baumannii, UniProt Q8RLA6)
[14] = target: T11, OXA-58 (Acinetobacter baumannii, UniProt Q2TR58)
[15] = target: T4, VIM-1
[16] = target: T5, IMP-1
[17] = target: T1, SHV-12; type: biochemical
[18] = target: T12, TEM-43 (Escherichia coli, UniProt P62593, E102K/M180T/R162H, species not given); type: biochemical; settings: hydrolysis by TEM-43
[19] = target: T13, KPC-3 (Klebsiella pneumoniae, UniProt Q9F663, H272Y); type: biochemical; settings: hydrolysis by KPC-3
[20] = target: T14, BKC-1 (Klebsiella pneumoniae, UniProt A0A0F6QEY8); assay: Km and kcat of nitrocefin or imipenem hydrolysis; type: biochemical; settings: hydrolysis by BKC-1
[21] = target: T15, FRI-1 (Enterobacter cloacae, UniProt A0A0M5L4T8); assay: Km and kcat of nitrocefin or imipenem hydrolysis; type: biochemical; settings: hydrolysis by FRI-1
[22] = target: T16, SME-2 (Serratia marcescens, UniProt P52682, V207Q); type: biochemical
[23] = target: TEM-10 (Escherichia coli, UniProt P62593, E237K/R162S); settings: hydrolysis by TEM-10
[24] = target: T7, KPC-2; assay: IC50 of beta-lactamase inhibition (nitrocefin hydrolysis); type: biochemical; settings: KPC-2, class A; substrate nitrocefin; 10 min preincubation at 37°C; read-out: IC50 (nM) of drug
[25] = target: T8, OXA-48; assay: as above; type: biochemical, Enterobacteriaceae; settings: read-out: IC50 (nM) of drug
[26] = target: T9, OXA-23; assay: as above; type: biochemical; settings: read-out: IC50 (nM) of drug
[27] = target: T1, SHV-12; assay: biochemical; settings: derived from the ratio of koff and k2/K
[28] = target: T2, CTX-M-15; assay: koff of enzyme activity recovery, jump dilution method; type: biochemical; settings: derived from the ratio of koff and k2/K
Method: (§2) Enzyme at a 1 μM concentration in buffer A was mixed with BLI at an 8-fold-higher concentration than its stoichiometry ratio (determined in preliminary stoichiometry experiments). […].

[29] = target: T7, KPC-2; assay: as above; type: biochemical; settings: derived from the ratio of koff and k2/K
Method: as §2

[30] = target: T13, KPC-3; assay: as above; type: biochemical; settings: derived from the ratio of koff and k2/K
Method: as §2

[31] = target: T9, OXA-23; assay: as above; type: biochemical; settings: derived from the ratio of koff and k2/K
Method: as §2

[32] = target: T10, OXA-24; assay: as above; type: biochemical; settings: derived from the ratio of koff and k2/K
Method: as §2

[33] = target: T11, OXA-58; assay: as above; type: biochemical; settings: derived from the ratio of koff and k2/K
Method: as §2

[34] = target: T3, P99; assay: as above; type: biochemical; settings: derived from the ratio of koff and k2/K
Method: as §2

[35] = target: T16, SME-2; assay: as above; type: biochemical; settings: derived from the ratio of koff and k2/K
Method: as §2

[36] = target: T8, OXA-48; assay: as above; type: biochemical, Enterobacteriaceae; settings: derived from the ratio of koff and k2/K
Method: as §2

[37] = target: T14, BKC-1; assay: Stoichiometry of beta-lactamase inhibition; type: biochemical; settings: minimal BLI/enzyme ratio reducing enzyme activity by at least 90%
Method: (§3) Purified enzyme at 1 μM concentration in buffer A was mixed with BLI at a BLI/enzyme ratio varying from 128 to 0.0625. […]. Stoichiometry of inhibition was determined as a minimal BLI/enzyme ratio reducing enzyme activity by at least 90%.

[38] = target: T15, FRI-1; assay: Stoichiometry of beta-lactamase inhibition; type: biochemical; settings: minimal BLI/enzyme ratio reducing enzyme activity by at least 90%
Method: as §3

[39] = target: T13, KPC-3; assay: Stoichiometry of beta-lactamase inhibition; type: biochemical; settings: minimal BLI/enzyme ratio reducing enzyme activity by at least 90%
Method: as §3

[40] = target: T1, SHV-12; assay: Stoichiometry of beta-lactamase inhibition; type: biochemical; settings: minimal BLI/enzyme ratio reducing enzyme activity by at least 90%
Method: as §3

[41] = target: T16, SME-2; assay: Stoichiometry of beta-lactamase inhibition; type: biochemical; settings: minimal BLI/enzyme ratio reducing enzyme activity by at least 90%
Method: as §3

[42] = target: T12, TEM-43; assay: Stoichiometry of beta-lactamase inhibition; type: biochemical; settings: minimal BLI/enzyme ratio reducing enzyme activity by at least 90%
Method: as §3

[43] = target: T2, CTX-M-15; assay: Stoichiometry of beta-lactamase inhibition; type: biochemical; settings: minimal BLI/enzyme ratio reducing enzyme activity by at least 90%
Method: (§4) […]. Stoichiometry of inhibition was determined as a minimal BLI/enzyme ratio reducing enzyme activity by at least 90%.

[44] = target: T7, KPC-2; assay: Stoichiometry of beta-lactamase inhibition; type: biochemical; settings: minimal BLI/enzyme ratio reducing enzyme activity by at least 90%
Method: as §4

[45] = target: T9, OXA-23; assay: Stoichiometry of beta-lactamase inhibition; type: biochemical; settings: minimal BLI/enzyme ratio reducing enzyme activity by at least 90%
Method: as §4

[46] = target: T10, OXA-24; assay: Stoichiometry of beta-lactamase inhibition; type: biochemical; settings: minimal BLI/enzyme ratio reducing enzyme activity by at least 90%
Method: as §4

[47] = target: T8, OXA-48; assay: Stoichiometry of beta-lactamase inhibition; type: biochemical; settings: minimal BLI/enzyme ratio reducing enzyme activity by at least 90%
Method: as §4

[48] = target: T11, OXA-58; assay: Stoichiometry of beta-lactamase inhibition; type: biochemical; settings: minimal BLI/enzyme ratio reducing enzyme activity by at least 90%
Method: as §4

[49] = target: T3, P99; assay: Stoichiometry of beta-lactamase inhibition; type: biochemical; settings: minimal BLI/enzyme ratio reducing enzyme activity by at least 90%
Method: as §4

[50] = target: T5, IMP-1; assay: Ki of competitive MBL inhibition (method of Waley); type: biochemical
Method: as §1

[51] = target: T4, VIM-1; assay: Ki of competitive MBL inhibition (method of Waley); type: biochemical
Method: as §1

[52] = test system: strain producing cloned L1 from Stenotrophomonas maltophilia; settings: strain producing cloned L1 (B3 subclass MBL); cited from earlier work
[53] = P99, class C, substrate nitrocefin, 10 min preincubation at 37°C, read-out: IC50 (nM) of drug
[54] = Kd values for MBLs were based on Kis

Compound: NC(=O)[C@@H]1CC[C@@H]2CN1C(=O)N2OS(=O)(=O)O [Avibactam, avibactam]
- IC50 [1]: 1.4 ± 0.4 nM
- IC50 [2]: 0.61 ± 0.19 nM
- IC50 [3]: 0.56 ± 0.25 nM
- IC50 ([4]; IC50 (nM) of drug): 26 ± 7 nM
- IC50 ([5]; IC50 (nM) of drug): > 160000 nM
- IC50 [6]: > 160000 nM
- IC50 [7]: > 160000 nM

Compound: C[C@@H](O)[C@H]1C(=O)N2C(C(=O)O)=C(SCCN=CN)C[C@H]12 [Imipenem, imipenem]
- Km [8]: 70 µM
- kcat [8]: 39 s⁻¹
- Km [9]: 206 µM
- kcat [9]: 96 s⁻¹
- kcat [10]: 35 s⁻¹
- Km [11]: 1.5 µM
- kcat [11]: 1.7 s⁻¹
- Km [12]: 6.6 µM
- kcat [12]: 0.7 s⁻¹
- Km [13]: 1.2 µM
- kcat [13]: 1.9 s⁻¹
- Km [14]: 1.3 µM
- kcat [14]: 0.66 s⁻¹
- Km [15]: 13 µM
- kcat [15]: 15 s⁻¹
- Km [16]: 66 µM

Compound: O=C(Cc1cccs1)N[C@@H]1C(=O)N2C(C(=O)O)=C(/C=C/c3ccc([N+](=O)[O-])cc3[N+](=O)[O-])CS[C@H]12 [Nitrocefin, nitrocefin]
- Km [17]: 5.5 µM
- kcat ([17]; hydrolysis by SHV-12): 73 s⁻¹
- kcat [18]: 175 s⁻¹
- Km [8]: 49 µM
- kcat ([8]; hydrolysis by KPC-2): 206 s⁻¹
- kcat [19]: 182 s⁻¹
- kcat [20]: 721 s⁻¹
- kcat [21]: 176 s⁻¹
- Km [22]: 59 µM
- kcat ([22]; hydrolysis by SME-2): 352 s⁻¹
- Km [9]: 1.6 µM
- kcat ([9]; hydrolysis by NDM-1): 27 s⁻¹
- kcat [10]: 325 s⁻¹
- kcat [23]: 18 s⁻¹

Compound: O=C(O)c1c(F)ccc2c1OB(O)[C@@H]1C[C@H]21 [QPX7728]
- IC50 [24]: 2.9 ± 0.4 nM
- IC50 [1]: 0.94 ± 0.2 nM
- IC50 [2]: 1.9 ± 0.6 nM
- IC50 [3]: 1.2 ± 0.1 nM
- IC50 [4, 53]: ~22 nM and 22 nM
- IC50 [25]: 1 nM and 1.1 nM
- IC50 [26]: 1 nM and 1.2 nM
- IC50 ([5]; read-out: IC50 (nM) of drug): 14 ± 4 nM
- IC50 [6]: 610 ± 70 nM
- Kd [27]: 28 ± 4 nM
- Kd [28]: 0.11 ± 0.02 nM
- Kd [29]: 0.25 ± 0.03 nM
- Kd [30]: 0.31 ± 0.06 nM
- Kd [31]: 1.6 ± 0.2 nM
- Kd [32]: 0.58 ± 0.1 nM
- Kd [33]: 3.2 ± 0.3 nM
- Kd [34]: 0.53 ± 0.06 nM
- Kd [35]: 0.15 ± 0.02 nM
- Kd [36]: 0.13 ± 0.01 nM
- Stoichiometry [37]: 1
- Stoichiometry [38]: 1
- Stoichiometry [39]: 1
- Stoichiometry [40]: 1
- Stoichiometry [41]: 1
- Stoichiometry [42]: 1
- Stoichiometry [43]: 1
- Stoichiometry [44]: 1
- Stoichiometry [45]: 2
- Stoichiometry [46]: 1
- Stoichiometry [47]: 1
- Stoichiometry [48]: 1
- Stoichiometry [49]: 1
- Kd [50, 54]: 240 ± 30 nM
- Ki ([50]; competitive, fast-on–fast-off): 240 ± 30 nM
- Kd [51, 54]: 7.5 ± 2.1 nM
- Ki ([51]; competitive, fast-on–fast-off): 7.5 ± 2.1 nM
- ability to reduce MICs of meropenem and ceftazidime [52]: inability

Compound: O=C(NC1CCNCC1)[C@@H]1CC[C@@H]2CN1C(=O)N2OS(=O)(=O)O [Relebactam, relebactam]
- IC50 [1]: 34 ± 10 nM
- IC50 [2]: 330 ± 50 nM
- IC50 [4, 53]: 36 ± 4 nM
- IC50 ([5]; IC50 (nM) of drug): > 160000 nM
- IC50 [6]: > 160000 nM
- IC50 [7]: > 160000 nM

Compound: O=C(O)C[C@@H]1CC[C@H](NC(=O)Cc2cccs2)B(O)O1 [Vaborbactam, vaborbactam]
- IC50 [24]: 110 ± 30 nM
- IC50 [1]: 110 ± 40 nM
- IC50 [2]: 56 ± 11 nM
- IC50 [3]: 92 ± 13 nM
- IC50 [4, 53]: 88 ± 38 nM
- IC50 [25]: 6900 nM
- IC50 [26]: 120000 nM
- IC50 ([5]; IC50 (nM) of drug): > 160000 nM
- IC50 [6]: > 160000 nM
- IC50 [7]: > 160000 nM
